Entries after “also recorded” stand apart in the source; their conditions may differ. Values belong to the compound of their own block, whether it stands above or below them. Peptide text beside a SMILES is read from it. * marks the point of attachment. Cbz = O=C(OCc1ccccc1)*; CH2F = FC*
What was measured:
MDA-MD-231 = settings: for induction of apoptosis by NF-κB blockers: PGA1 100 μM 20 hours, CAPE 50 μg/ml 17 hours, parthenolide 2.5 μg/ml 4 hours
BT-20 = settings: for induction of apoptosis by NF-κB blockers: PGA1 100 μM 20 hours, CAPE 50 μg/ml 17 hours, parthenolide 2.5 μg/ml 4 hours
[1] = system: JNK activation in 3DO cells; assay: JNK activation by TNFα in 3DO cells (Western blots, JNK kinase assays); format: cell-based
Procedure: Plasmids were transfected as indicated along with pEGFP (Clontech). […] Inhibitors (Calbiochem) and concentrations are as indicated.
Northern blots were performed by standard procedures using 6 μg of total RNA. The EMSAs with the palindromic probes and the preparation of whole cell extracts were as previously described (Franzoso et al., 1992). For western blots, cell extracts were prepared either in a modified lysis buffer (50 mM Tris, pH 7.4, 100 mM NaCl, 50 mM NaF, 1 mM NaBo4, 30 mM pyrophosphate, 0.5% NP-40, and protease inhibitors (FIG. 1B; Boehringer Mannheim), in Triton X-100 buffer (FIG. 4A; Medema et al., 1997) or in a lysis buffer containing 1% NP-40 350 mM NaCl, 20 MM HEPES (pH 8.0), 20% glycerol, 1 mM MgCl2, 0.1 mM EGTA, 0.5 mM DTT, 1 mM Na3VO4, 50 mM NaF and protease inhibitors. Each time, equal amounts of proteins (ranging between 15 and 50 μg) were loaded and Western blots prepared according to standard procedures. Reactions were visualized by ECL (Amersham). Antibodies were as follows: IκBα, Bid, and β-actin from Santa Cruz Biotechnology; caspase-6, -7 and -9, phospho and total -p38, phosph and total -ERK, phospho and total -JNK from Cell Signaling Technology; caspase-8 from Alexis; Caspase-2 and -3 from R&D systems. The Gadd45β-specific antibody was generated against an N-Terminal peptide. Kinase assays were performed with recombinant GST-c-jun and anti-JNK antibodies (Pharmingen), (Lin et al., 1995).

3DO-IκBαM cells = assay: Survival of 3DO-IκBαM cells pretreated with MAPK inhibitors, then TNFα; settings: TNFα 25 U/ml 12 hours
Procedure: FIG. 5a: Kinetics of JNK activation by TNKα (1000 U/ml) in 3DO—IκBαM and 3DO-Neo clones. Western blots with antibodies specific for phosphorylated (P) or total JNK (top and middle, respectively) and JNK kinase assays (bottom). […] CHX treatments were carried out for 30 minutes in addition to the indicated time. FIG. 5d: Survival of transfected RelA−/− MEFs following treatment with TNFα (1000 U/ml) plus CHX ([…]) for 10 hours. Plasmids were transfected as indicated along with pEGFP (Clontech). FIG. 5e: Survival of 3DO-IκBαM cells pretreated with MAPK inhibitors for 30 minutes and then incubated with either TNFα (25 U/ml) or PBS for an additional 12 hours. Inhibitors (Calbiochem) and concentrations are as indicated. In (d) and (e), values represent the mean of three independent experiments.
MEF and 3DO cells were cultured in 10% Fetal bovine serum-supplemented DMEM and RPMI, respectively. Transient transfections in RelA−/− MEF were performed by Superfect according to the manufacturer's instructions (Qiagen). After cytotoxic treatment with CHX (Sigma) plus or minus TNFα (Peprotech), adherent cells were counted and analyzed by FCM (FACSort, Becton Dickinson) to assess numbers of live GFP^+ cells. To generate 3DO stable lines, transfections were carried out by electroporatoration (BTX) and clones were grown in appropriate selection media containing Geneticin (Gibco) and/or Hygromycin (Invitrogen). […] Daunorubicin, PMA, Ionomycin, hydrogen peroxide, and sorbitol were from Sigma; Cisplatin (platinol AQ) was from VHAplus, PD98059 and SB202190 were from Calbiochem.

JNKK2/MKK7 = target: T1, JNKK2/MKK7 (Homo sapiens, UniProt O14733, Q133P/Q94H); assay: Kinase assay of immunoprecipitated FLAG-JNKK2/MKK7 (GST-JNK1 substrate) pre-incubated with recombinant Gadd45β proteins or peptides; format: biochemical; settings: active MKK7 from TNFα-activated 293 cells, GST-JNK1 substrate
T1 construct: expressed in transfected cells; host or cells: HEK-293, TNFα-treated or untreated; anti-FLAG immunoprecipitate
T1 sequence (O14733 1-401 Q94H/Q133P limits assumed): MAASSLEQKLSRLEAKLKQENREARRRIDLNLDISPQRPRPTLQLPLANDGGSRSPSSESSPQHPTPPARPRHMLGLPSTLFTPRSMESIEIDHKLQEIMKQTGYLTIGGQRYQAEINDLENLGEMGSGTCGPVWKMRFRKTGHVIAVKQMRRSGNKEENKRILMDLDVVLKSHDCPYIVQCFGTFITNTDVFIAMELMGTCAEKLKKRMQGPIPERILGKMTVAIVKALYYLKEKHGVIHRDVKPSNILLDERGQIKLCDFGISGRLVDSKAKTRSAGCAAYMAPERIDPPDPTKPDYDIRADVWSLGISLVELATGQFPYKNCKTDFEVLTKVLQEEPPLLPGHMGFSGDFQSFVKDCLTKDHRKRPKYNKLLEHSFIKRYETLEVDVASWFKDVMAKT
Procedure: Next, the functional consequences, in vitro, of the physical interactions of Gadd45β with kinases in the JNK pathway were assessed. Murine and human, full-length Gadd45J3 proteins were purified from E. coli as GST-Gadd45β and His6-tagged Gadd45β (His6 disclosed as SEQ ID NO: 46), respectively, according to standard procedures. Prior to employing these proteins in in vitro assays, purity of all recombinant polypeptides was assured by >98%, by performing Coomassie blue staining of SDS polyacrylamide gels. Then, the ability of these proteins, as well as of control GST and His6-EF3 (His6 disclosed as SEQ ID NO: 46)proteins, to inhibit kinases in the JNK pathways was monitored in vitro. FLAG-tagged JNKK2, JNKK1, MKK3, and ASK1 were immunoprecipitated from transiently transfected 293 cells using anti-FLAG antibodies and pre-incubated for 10 minutes with increasing concentrations of recombinant proteins, prior to the addition of specific kinase substrates (i.e. GST-JNK1 with JNKK1 and JNKK2; GST-p38[…] with MKK3; GST-JNNK1 or GST-JNKK2 with ASK1). […] These findings indicate that, upon binding to Gadd45β, JNKK2 is effectively inactivated.
A question was whether Gadd45β inhibited active MKK7, in vitro. FLAG-MKK7 was immunoprecipitated from TNFα-treated or untreated 293 cells, and kinase assays were performed in the presence of purified His6-Gadd45β (His6 disclosed as SEQ ID NO: 46), GST-Gadd45β, or control proteins (FIG. 28d; see also FIG. 28g). […] Consistent with the in vivo findings (FIG. 27), the inhibitory activity of Gadd45β was specific. […] Indeed, the effects of Gadd45β on MKK7 phosphorylation by TNFα may be due inhibition of the MKK7 ability to auto-phoshorylate and/or to serve as substrate for upstream kinases. Altogether, the findings identify MKK7 as a target of Gadd45β, and of NF-[…]B, in the JNK cascade. Of interest, MKK7 is a selective activator of JNK, and its ablation abolishes JNK activation by TNFα. Thus, blockade of MKK7 is sufficient on its own to explain the effects of Gadd45β on JNK signaling—i.e. its specific and near-complete suppression of this signaling.
Active MKK7 was immunoprecipitated from TNFα-activated 293 cells and MKK7 kinase assays were performed using GST-JNK1 substrates and pure recombinant Gadd45β polypeptides (FIG. 37B; a schematic diagram representing the Gadd45βpolypeptides used is shown in FIG. 37A). […] MKK7 kinase assays were performed as in FIG. 37B, except that pure synthetic Gadd45, peptides (whose sequences are shown in FIG. 37C) were used instead of pure recombinant Gadd45β proteins. The amino acid region between amino acids 58 and 77 of Gadd45βis used for the Gadd45β-mediated inhibition of MKK7. […]

[2] = concomitant treatment with PGA1, CAPE or parthenolide

Compound: O=C(/C=C/c1ccc(O)c(O)c1)OCCc1ccccc1 [CAPE]
- induction of apoptosis by NF-κB blockers (MDA-MD-231): induced apoptosis rapidly
- induction of apoptosis by NF-κB blockers (BT-20): induced apoptosis rapidly

Compound: C[C@@H]1C[C@@H]([C@H](O)CC2CC(=O)NC(=O)C2)C(=O)[C@@H](C)C1 [CHX, cycloheximide]
- JNK activation by agent alone ([1]; 3DO cells, CHX alone): no effect
- down-regulation of TNFα-induced JNK ([1]; parental 3DO cells, TNFα 1000 U/ml plus CHX 10 μg/ml): impaired

Compound: COc1cccc(-c2cc(=O)c3ccccc3o2)c1N [PD98059]
- antagonism of TNFα cytotoxicity (3DO-IκBαM cells; 30 min pretreatment): could not antagonize

Compound: Oc1ccc(-c2nc(-c3ccncc3)c(-c3ccc(F)cc3)[nH]2)cc1 [SB202190]
- cell survival under TNFα (3DO-IκBαM cells; high concentrations, 50 μM): dramatically enhanced cell survival; also recorded: rescues
- antagonism of TNFα cytotoxicity (3DO-IκBαM cells; low concentrations, 5 μM and lower): could not antagonize

Compound: Oc1c2ccccc2c2c3c(cccc13)N=N2 [SP600125]
- rescue from cytotoxicity induced by inhibition of NF-κB (MDA-MD-231; [2]): can be rescued; also recorded: dramatically rescued
- rescue from cytotoxicity induced by inhibition of NF-κB (BT-20; [2]): can be rescued; also recorded: dramatically rescued

Compound: CCCCC[C@H](O)/C=C/[C@H]1C=CC(=O)[C@@H]1CCCCCCC(=O)O [prostaglandin A1]
- induction of apoptosis by NF-κB blockers (MDA-MD-231): induced apoptosis rapidly
- induction of apoptosis by NF-κB blockers (BT-20): induced apoptosis rapidly

Compound: COC(=O)C[C@H](NC(=O)[C@H](C)NC(=O)[C@@H](NC(=O)OCc1ccccc1)C(C)C)C(=O)CF [zVAD-fik] (Cbz-Val-Ala-Asp(OMe)-CH2F)
- late (160 minutes, caspase-dependent) rise of JNK activation by TNFα ([1]; IκBαM-Hygro 3DO clones): could be prevented

- inhibition of MKK7 activity by Gadd45β-derived peptides / polypeptide regions (JNKK2/MKK7): sufficient to also inhibit MKK7 activity
Compound: AIDEEEEDDIALQIHFTLIQSFCCDND [amino acids 60-86, positions 60-86 of Gadd45β]
